Experimental data from patent US6156801A, “2-phenoxyaniline derivatives” (Taisho Pharmaceutical Co., Ltd., priority 1997, dated 2000).
Counter-ions that a name gives are not always drawn.

Target: T1, Na^+ /Ca^2+ exchange system (Canis lupus familiaris, UniProt P23685)
T1 construct: Sarcolemmal vesicles which were prepared from the removed dog ventricular muscles; from tissue; host or cells: dog ventricular muscle, sarcolemmal vesicles
Test: Inhibitory action on Na+/Ca2+ exchange system using myosarcolemmal vesicles (45Ca uptake)
Assay type: biochemical
Details: sarcolemmal vesicles from dog ventricular muscles; Na+-loaded; 20 μM [45Ca]-calcium chloride, pH 7.4, 10 seconds uptake
Method: Inhibitors Action on a Na^+ /Ca^2+ Exchange System using Myosarcolemmal Vesicles Sarcolemmal vesicles which were prepared from the removed dog ventricular muscles by referring to the method described in the literature (L. R. Jones, Methods, Enzymol., 1988, 157, pp. 85) were used. A Na^+ /Ca^2+ exchange activity using the sarcolemmal vesicles was measured by referring to the method described in the literature (K. D. Philipson, et al., J. Biol. Chem., 1980, 255, pp. 6880). First, the sarcolemmal vesicles were suspended in a sodium-containing solution [160 mM sodium chloride, 20 mM […] (pH 7.4)] to make up to a protein concentration of 1.5 mg/ml, and allowed to stand for an hour to load Na^+ in the sarcolemmal vesicles. To 2.5 μl of the sarcolemmal vesicles was added 125 μl of a [^45 Ca]-calcium chloride solution [20 μM [^45 Ca]-calcium chloride, 160 mM potassium chloride and 20 mM Mops-Tris (pH 7.4)], and after 10 seconds, 900 μl of an ice-cooled lanthanum chloride solution [10 mM lanthanum chloride, 160 mM potassium chloride and 20 mM Mops-Tris (pH 7.4)] was added. The sarcolemmal vesicles were recovered on a nitrocellulose filter by suction filtration and washed three times with 900 μl of a lanthanum chloride solution. The concentration of Ca^2+ uptake in the sarcolemmal vesicles was determined by measuring a ^45 Ca radioactivity by a scintillator. In addition, a Na^+ /Ca^2+ exchange activity-independent Ca^2+ uptake in the sarcolemmal vesicles was determined by carrying out the same procedure using a potassium-containing solution [160 mM potassium chloride, 20 mM Tris-hydrochloric acid (pH 7.4)] instead of the sodium-containing solution. The test compound was used as a dimethyl sulfoxide solution thereof, and its inhibitory effect was evaluated in comparison with the vehicle-treatedgroup. The IC50 value was determined from a dose inhibition curve of the test compound by using the minimum square method.

Compound	IC50
COc1ccc(Oc2ccc(OCc3ccccc3)cc2)c(N)c1 [Example 1, 2-[4-(Benzyloxy)phenoxy]-5-methoxyaniline hydrochloride]	1100 nM
Nc1cccc(N)c1Oc1ccc(OCc2ccccc2)cc1 [Example 14, 2-[4-(Benzyloxy)phenoxy]-1,3-phenylenediamine dihydrochloride]	8200 nM
CCOc1ccc(Oc2ccc(OCc3ccccc3)cc2)c(N)c1 [Example 17, 2-[4-(Benzyloxy)phenoxy-5-ethoxyaniline hydrochloride]	2500 nM
NC(=O)COc1ccc(Oc2ccc(OCc3ccccc3)cc2)c(N)c1 [Example 19, 3-Amino-4-[4-(benzyloxy)phenoxy]phenoxy-acetamide hydrochloride]	14000 nM
COC(=O)COc1ccc(Oc2ccc(OCc3ccccc3)cc2)c(N)c1 [Example 20, Methyl 3-amino-4-[4-(benzyloxy)-phenoxy]phenoxyacetate hydrochloride]	2800 nM
